Assay: Immunization of rabbits with peptide-KLH conjugates, antibody detection by solid-phase ELISA / Western Blot
Format: in vivo
Conditions: high-titer epitope-specific anti-EPO antibodies
From the text: In order to produce antibodies specific for EPO peptides, the peptide-KLH conjugates were emulsified with adjuvants and injected into rabbits in accordance with a 5-week immunization regimen. After this time the animals had produced specific antibodies and were bled.
A solid-phase ELISA was used to assay the sera for peptide or EPO specificity. The content of peptide-specific and EPO-specific antibodies in the antisera or in the antibody fractions which had been purified by affinity chromatography was determined in plastic microtiter plates, which were coated with purified EPO or with EPO peptides, using an enzyme-coupled anti-rabbit-Ig antiserum. In parallel with this, the antibodies were examined in a Western Blot to detect the specific EPO bands of 34–38 kDa.
Rabbits were immunized with […] of antigen per animal on each occasion for a period of 5 weeks. At the first immunization, the animals each received 0.4 mg of antigen in complete Freund's adjuvant (CFA) subcutaneously at 8 immunization sites in the vicinity of the lymph nodes. This was followed 2 weeks later by subcutaneous immunization with 0.8 mg of antigen/animal in CFA. After a further 2 weeks, the animals received intravenous administration of 0.1 mg of antigen in Aerosil on each of 5 consecutive days. 3 days later they were bled, and the individual antisera were obtained.
20 μg/ml EPO or EPO-specific peptides were coupled in carbonate buffer in plastic microtiter plates at 4° C. overnight. Before carrying out the assays, the plates were washed twice with PBS, saturated with PBS/0.5% BSA for 30 minutes and then washed three times with PBS.
The plates saturated with BSA were incubated with dilutions of the anti-EPO rabbit antisera or of the purified antibody fractions for 2 hours. After this time they were washed with PBS and incubated with anti-rabbit Ig anti-serum, which was coupled to alkaline phosphatase, for 2 hours. […] The reaction was stopped with 1 M NaOH after one hour, and the optical density at […] was measured. […]

Row | Sequence | Immunogenicity of the EPO peptide
1 | KRMEVGQQAVEV [P3/1, EPO peptide, amino-acid positions 52 to 63] | highly immunogenic
2 | SSQPWEPLQLHV [P1/1, EPO peptide, amino-acid positions 84 to 95] | highly immunogenic
3 | CDSRVLERYLLEAKEAE [P4/1, EPO peptide, amino-acid positions 7 to 23] | highly immunogenic

Reference: patent US6932968B1, “Erythropoietin (EPO) peptides and antibodies directed against these” (Dade Behring Marburg GmbH, priority 1989, dated 2005)
